Structures can show the parent of a compound that is named as a salt. Where two headings read alike, the source gives them in different places.
Experiments:
HUVEC = experiment: Pre-established vessels disruption (capillary tubes on Matrigel); type: cell-based; conditions: HUVEC tubes formed 5 hours, then compounds overnight
Experimental: To explore the effect of the compounds on pre-established vasculature, twenty thousand cells (HUVEC) were seeded and incubated over Matrigel for 5 hours to allow the capillary tubes to form. Then, compounds were added and incubated overnight. The disappearance of existing vasculature was monitored with fluorescent microscopy.

purified tubulin = molecular target: T1, purified tubulin (Sus scrofa, UniProt P02550+P02554); experiment: Tubulin polymerisation assay (CytoDYNAMIX Screen kit, absorbance at 340 nm); type: biochemical; conditions: for inhibition at 5 µM / % Inhibition of tubulin polymerization at 5 μM: 5 μM compound, 4 mg/ml tubulin; for inhibition at 5 µM: read-out: % Inhibition of tubulin polymerization at 5 μM; for IC50: tubulin polymerization
T1 construct: purchased Cytoskeleton #BK006P
T1 sequence (P02554 whole entry): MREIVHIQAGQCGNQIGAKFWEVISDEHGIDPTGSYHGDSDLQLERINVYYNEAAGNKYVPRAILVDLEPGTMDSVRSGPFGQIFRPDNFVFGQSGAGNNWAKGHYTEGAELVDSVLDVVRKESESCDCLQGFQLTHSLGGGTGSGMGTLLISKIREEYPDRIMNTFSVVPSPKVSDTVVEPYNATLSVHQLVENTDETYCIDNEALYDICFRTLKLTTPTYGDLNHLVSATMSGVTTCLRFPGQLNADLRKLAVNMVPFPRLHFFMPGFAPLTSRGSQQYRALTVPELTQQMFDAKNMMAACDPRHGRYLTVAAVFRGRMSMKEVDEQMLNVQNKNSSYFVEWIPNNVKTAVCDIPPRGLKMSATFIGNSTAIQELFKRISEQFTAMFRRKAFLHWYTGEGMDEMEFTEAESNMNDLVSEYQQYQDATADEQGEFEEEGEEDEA
T1 sequence (P02550 whole entry): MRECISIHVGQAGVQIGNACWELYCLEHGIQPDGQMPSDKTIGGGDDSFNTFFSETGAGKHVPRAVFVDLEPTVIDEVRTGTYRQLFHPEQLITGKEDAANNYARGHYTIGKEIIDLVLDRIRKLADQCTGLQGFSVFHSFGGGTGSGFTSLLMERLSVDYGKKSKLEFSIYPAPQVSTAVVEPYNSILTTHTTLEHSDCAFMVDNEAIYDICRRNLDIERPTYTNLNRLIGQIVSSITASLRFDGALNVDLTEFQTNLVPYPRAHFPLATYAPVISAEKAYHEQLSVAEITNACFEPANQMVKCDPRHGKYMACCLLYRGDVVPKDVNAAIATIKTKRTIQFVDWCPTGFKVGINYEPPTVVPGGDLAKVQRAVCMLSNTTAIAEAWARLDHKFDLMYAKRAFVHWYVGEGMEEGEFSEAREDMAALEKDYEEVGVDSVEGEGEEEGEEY
Experimental: The polymerization of purified tubulin was monitored spectrophotometrically by the change in absorbance at 340 nm using the CytoDYNAMIX Screen kit (#BK006P, Cytoskeleton) according to the instructions of the manufacturer. […] The absorbance was measured at 1 minute intervals for 60 minutes. The test compound was added to a 4 mg/ml tubulin solution containing 10% glycerol and 1 mM GTP in Buffer 1 (Buffer 1: 80 mM PIPES; 2 mM MgCl2; 0.5 mM EGTA, pH 6.9). Increased absorbance indicates increase in microtubule formation from tubulin heterodimers.

K562 cell line = experiment: MTT assay: cytotoxicity against the K562 cell line; type: cell-based; conditions: K562 cells, 72 h, growth inhibition
Experimental: Assessment of Cell Viability via MTT Assay: Cytotoxicity of compounds against the K562 cell line was assessed using the [3-(4,5-dimethylthiazol-2-yl)-2,5-diphenyl tetrazolium bromide] (MTT) assay. Fifteen thousand tumor cells were seeded into wells of flat-bottomed 96-well plates. An amount of 2 μL of a dilution series of each compound dissolved in DMSO was added to 198 μL of appropriate growth medium at three replicates per concentration and the plates were incubated in a 5% CO2 incubator at 37° C. After 72 h, the number of metabolically active cells was determined by MTT assay. Absorbance of each well was measured at 550 nm on a Tecan Sunrise reader. Dose-response curves for growth inhibition were generated as a percentage of untreated control. IC50 was determined by nonlinear regression (Prism, Graph Pad Software, Inc.).

[1] = test system: Endothelial cells (HUVEC); experiment: Neovessels formation inhibition (capillary tube formation on Matrigel); type: cell-based; conditions: HUVEC on Matrigel, compounds overnight
Experimental: The capability of compounds to inhibit the formation of capillaries was evaluated in vitro. Twenty thousand Endothelial cells (HUVEC) were placed on a Matrigel matrix and allowed to form capillary tubes in the presence or absence of the compounds overnight. The cells were stained with calcein AM, and the effect of the compounds on capillary tube formation was assessed using an inverted fluorescent microscope (Nikon). The reference compound used in this assay AVE-8063 is 3-amino-deoxycombretastatin A-4.

[2] = molecular target: T2, colchicine site on tubulin (biotinylated porcine tubulin) (Sus scrofa, UniProt P02550+P02554); experiment: Tubulin displacement assay (3H-colchicine radioligand binding, SPA); conditions: competition with 50 nM [3H]-colchicine, 4 h at 37° C.; read-out: IC50
T2 construct: biotin (chemical label)
T2 sequence (P02554 whole entry): as the sequence (P02554 whole entry) above
T2 sequence (P02550 whole entry): as the sequence (P02550 whole entry) above
Experimental: The assay was developped following the method published by Tahir et al. (2001) and others using biotinylated porcine tubulin captured to streptavidin coated yttrium silicate scintillation proximity assay (YSi SPA) beads in a PIPES/EGTA/MgCl2/GTP buffer. […] IC50s were determined using GraphPad Prism Version 5.01 and the sigmoidal dose response with variable slope curve fit.

[3] = Homo sapiens, read-out: Pre-established Vessels Disruption Number of Branch Junctions IC50
[4] = Homo sapiens, read-out: Pre-established Vessels Disruption Total Tubule Length IC50
[5] = Homo sapiens, read-out: Neovessels Formation Inhibition Number of Branch Junctions IC50
[6] = Homo sapiens, read-out: Neovessels Formation Inhibition Total Tubule Length IC50
[7] = read-out: Pre-established Vessels Disruption Number of Branch Junctions IC50
[8] = read-out: Pre-established Vessels Disruption Total Tubule Length IC50
[9] = read-out: Neovessels Formation Inhibition Number of Branch Junctions IC50
[10] = read-out: Neovessels Formation Inhibition Total Tubule Length IC50

Structure (SMILES) | IC50 (HUVEC; [3]) [nM] | IC50 (HUVEC; [4]) [nM] | inhibition at 5 µM (purified tubulin) [%] | IC50 (purified tubulin) [nM] | IC50 (K562 cell line; Homo sapiens) [nM] | IC50 [1, 5] [nM] | IC50 [1, 6] [nM] | IC50 (HUVEC; [7]) [nM] | IC50 (HUVEC; [8]) [nM] | % Inhibition of tubulin polymerization at 5 μM (purified tubulin) [%] | IC50 (K562 cell line) [nM] | IC50 [1, 9] [nM] | IC50 [1, 10] [nM] | IC50 [2] [nM]
COc1ccc(/C=C\c2cc(OC)c(OC)c(OC)c2)cc1NC(=O)[C@@H](N)CO [AVE8062, reference compound] | 32.5 | 52.9 | 59.8 | 1790 | 7.78 | 13.9 | 15.4 | – | – | – | – | – | – | –
COc1ccc(/C=C\c2cc(OC)c(OC)c(OC)c2)cc1N [AVE8063, 3-amino-deoxycombretastatin A-4, reference compound] | – | – | – | 1070 | – | – | – | 5.72 | 7.74 | 71.29 | 2.71 | 3.12 | 5.33 | –
COc1cc(C(=O)c2c(C)oc3c(O)c(OC)ccc23)cc(OC)c1OC [BNC105, reference compound] | – | – | – | 1780 | – | – | – | 5.2 | 6.37 | 64.75 | 0.55 | 1.76 | 2.49 | –
COc1cc(C(=O)c2c(C)oc3c(OP(=O)([O-])O)c(OC)ccc23)cc(OC)c1OC.[Na+] [BNC105P, reference compound] | – | – | – | 4100 | – | – | – | 5.83 | 7.37 | 39.00 | 17.3 | 0.44 | 1.53 | –
COc1cc(Cc2cncc3c(OC)c(OC)ccc23)cc(OC)c1OC [Compound 10, 4-(3,4,5-Trimethoxybenzyl)-7,8-dimethoxyisoquinoline hydrochloride] | – | – | – | 3440 | 283 | – | – | – | – | – | – | – | – | 1600
CCOc1ccc2c(Cc3cc(OC)c(OCC)c(OC)c3)cncc2c1O [Compound 14, 4-(4-Ethoxy-3,5-dimethoxybenzyl)-7-ethoxyisoquinolin-8-ol hydrochloride] | – | – | – | 1050 | 30.3 | 31.1 | 39.5 | – | – | – | – | – | – | –
CCOc1ccc2c(Cc3cc(OC)c(OCC)c(OC)c3)cncc2c1N [Compound 18, 4-(4-Ethoxy-3,5-dimethoxybenzyl)-7-ethoxyisoquinolin-8-amine dihydrochloride] | 17.8 | 32.1 | 61.4 | 990 | 13.2 | 13 | 18.7 | – | – | – | – | – | – | –
CCCOc1c(OC)cc(Cc2cncc3c(O)c(OCC)ccc23)cc1OC [Compound 19, 4-(3,5-Dimethoxy-4-propoxybenzyl)-7-ethoxyisoquinolin-8-ol hydrochloride] | 6.33 | 15.9 | 61.9 | 1850 | 21.5 | 14.4 | 23 | – | – | – | – | – | – | –
CCOc1ccc2c(Cc3cc(OC)c(OCC(C)C)c(OC)c3)cncc2c1O [Compound 20, 4-(4-Isobutoxy-3,5-dimethoxybenzyl)-7-ethoxyisoquinolin-8-ol hydrochloride] | 22.3 | 31.7 | 56.9 | 1520 | 20.8 | 24.9 | 31.9 | – | – | – | – | – | – | –
CCOc1ccc2c(Cc3cc(OC)c(OC)c(OC)c3)cncc2c1OS(N)(=O)=O [Compound 21, 4-(3,4,5-Trimethoxybenzyl)-7-ethoxyisoquinolin-8-yl sulfamate hydrochloride] | 26.7 | 60.5 | 65.8 | 1090 | 36.9 | 47.3 | 52.8 | – | – | – | – | – | – | –
CCOc1ccc2c(C(=O)c3cc(OC)c(OC)c(OC)c3)cncc2c1N [Compound 29, (8-Amino-7-ethoxyisoquinolin-4-yl)(3,4,5-trimethoxyphenyl)methanone hydrochloride] | 1.78 | 2.26 | 71.3 | 880 | 1.64 | 1.04 | 1.47 | – | – | – | – | – | – | –
C=CCOc1c(OC)cc(Cc2cncc3c(O)c(OCC)ccc23)cc1OC [Compound 32, 4-(4-(Allyloxy)-3,5-dimethoxybenzyl)-7-ethoxyisoquinolin-8-ol hydrochloride] | 20 | 48.8 | 63.4 | 1500 | 21.5 | 12.4 | 21.9 | – | – | – | – | – | – | –
CCCCOc1c(OC)cc(Cc2cncc3c(O)c(OCC)ccc23)cc1OC [Compound 38, 4-(4-Butoxy-3,5-dimethoxybenzyl)-7-ethoxyisoquinolin-8-ol hydrochloride] | – | – | 67.4 | 1110 | 30.4 | – | – | – | – | – | – | – | – | –
CCOc1ccc2c(C(=O)c3cc(OC)c(OC)c(OC)c3)cncc2c1 [Compound 40, (7-Ethoxyisoquinolin-4-yl)(3,4,5-trimethoxyphenyl)methanone hydrochloride] | 32.8 | 53.4 | 58.8 | 1130 | 19.6 | 8.2 | 12.9 | – | – | – | – | – | – | –
CCOc1ccc2c(C(=O)c3cc(OC)c(OCC)c(OC)c3)cncc2c1O [Compound 56, (4-Ethoxy-3,5-dimethoxyphenyl)(7-ethoxy-8-hydroxyisoquinolin-4-yl)methanone hydrochloride] | 14.4 | 16.1 | 65.1 | 1940 | 4.39 | 10.7 | 12.2 | – | – | – | – | – | – | –
CCOc1ccc2c(C(=O)c3cc(OC)c(OCC)c(OC)c3)cncc2c1N [Compound 58, (8-amino-7-ethoxyisoquinolin-4-yl)(4-ethoxy-3,5-dimethoxyphenyl)methanone hydrochloride] | 0.99 | 1.36 | 38.2 | 3490 | 1.23 | 0.53 | 0.59 | – | – | – | – | – | – | –
CCCOc1c(OC)cc(Cc2cncc3c(N)c(OCC)ccc23)cc1OC [Compound 64, 4-(3,5-Dimethoxy-4-propoxybenzyl)-7-ethoxyisoquinolin-8-amine dihydrochloride] | 7.41 | 14.7 | 79.5 | 900 | 11.2 | 7.02 | 9.54 | – | – | – | – | – | – | –
CCCOc1c(OC)cc(C(=O)c2cncc3c(OC(C)=O)c(OCC)ccc23)cc1OC [Compound 65, 4-(3,5-Dimethoxy-4-propoxybenzoyl)-7-ethoxyisoquinolin-8-yl acetate] | 3.36 | 9.92 | 13 | – | 3.81 | 2.88 | 4.23 | – | – | – | – | – | – | –
CCOc1ccc2c(C(=O)c3cc(OC)c(OC)c(OC)c3)cncc2c1NS(N)(=O)=O [Compound 105, N-(7-Ethoxy-4-(3,4,5-trimethoxybenzoyl)isoquinolin-8-yl)sulfamide hydrochloride] | 9.27 | 9.3 | 35 | – | 4.18 | 5.71 | 8.06 | – | – | – | – | – | – | –
CC[C@]1(O)C[C@@H]2CN(CCc3c([nH]c4ccccc34)[C@@](C(=O)OC)(c3cc4c(cc3OC)N(C)[C@H]3[C@@](O)(C(=O)OC)[C@H](OC(C)=O)[C@]5(CC)C=CCN6CC[C@]43[C@@H]65)C2)C1 [Vinblastine, reference compound] | 2.09 | 5.39 | 77.7 | 1050 | 3.66 | 1.55 | 3.44 | – | – | – | – | – | – | –

— US20130131018A1, “SUBSTITUTED ISOQUINOLINES AND THEIR USE AS TUBULIN POLYMERIZATION INHIBITORS” (Exonhit S.A., priority 2010, published 2013)
